Among the data in patent publication US6919328B1, “Tricyclic compounds with NOS activity” (Neuraxon Inc., priority 2001, dated 2005) are IC50 and inhibition values, retold here.

For one assay, the target named is iNOS (Homo sapiens, UniProt P35228). Description: iNOS enzyme assay (hemoglobin capture assay). It counts as biochemical. As to conditions: for pIC50: hemoglobin capture assay, initial velocity, read-out: IC50 of NOS, iNOS; for inhibition at 100 µM: read-out: Percent Inhibition of NOS, iNOS. Here is the method: (§1) The generation of nitric oxide by NOS was measured using the hemoglobin capture assay (Proc. Natl. Acad. Sci., U.S.A. 1990, 87, 714). As assay mixture for nNOS contained […], 1.6 mM CaCl2, […] calmoduline, […], 6.5 mM BH4 and 3 mM oxyhemoglobin in 100 mM Hepes (pH 7.5). The reaction mixture for iNOS contained 10 mM of L-arginine, […], 6.5 mM BH4 and 3 mM oxyhemoglobin in 100 mM Hepes (pH 7.5). All assays were in a final volume of […] and were initiated with enzyme. Nitric oxide reacts with oxyhemoglobin to yield methehemoglobin which is detected at 401 nm (e=19,700 M^−1cm^−1) on a Perkin-Elmer Lamda 10 UV/vis spectrophotometer.
(§2) IC50 and percent inhibition of NOS by the compounds of the invention was determined under initial velocity measurement condition with hemoglobin capture assay as described above using varying concentrations of the compounds of the invention.

Another assay deals with nNOS (Homo sapiens, UniProt P29475). Briefly: nNOS enzyme assay (hemoglobin capture assay). It counts as biochemical. As to conditions: for pIC50: hemoglobin capture assay, initial velocity, read-out: IC50 of NOS, nNOS; for inhibition at 100 µM: read-out: Percent Inhibition of NOS, nNOS. Here is the method:
as §1, §2

By pIC50 is commonly meant −log10 of the IC50, conventionally taken in molar units. By inhibition is commonly meant the relative decrease from the control value, in per cent.

Each structure is given as a SMILES string. pIC50: −log10 of the molar value. Structures can show the parent of a compound that is named as a salt.

Turning to `NC(=S)Nc1ccc2c(c1)C(=O)Nc1ccccc1N2` [Example 9, (11-Oxo-10,11-dihydro-5H-dibenzo[b,e][1,4]diazepin-2-yl)-thiourea], the pIC50 at iNOS was 3.52; on nNOS, 3.60.

Take `CC(=O)Nc1ccc2c(c1)C(=O)Nc1ccccc1N2` [Example 7, N-(11-Oxo-10,11-dihydro-5H-dibenzo[b,e][1,4]diazepin-2-yl)-acetamide]: the negative logarithm of the IC50 (pIC50) at iNOS was 3.30; on nNOS, 3.40.

Consider `CC(=N)Nc1ccc2c(c1)C(=O)Nc1ccccc1N2` [Example 11, N-(11-Oxo-10,11-dihydro-5H-dibenzo[b,e][1,4]diazeoin-2-yl)-acetamidine hydrobromide], for which the results for the pIC50 on iNOS and at nNOS were 3.30 and 3.70, respectively.

On to `N=C(Nc1ccc2c(c1)C(=O)Nc1ccccc1N2)SCc1ccccc1` [Example 13, 2-Benzyl-1-(11-oxo-10,11-dihydro-5H-dibenzo[b,e][1,4]diazepin-2-yl)-isothiourea], for which the inhibition at 100 µM is 29% on iNOS and 48% at nNOS.

Consider `O=C(NC(=S)Nc1ccc2c(c1)C(=O)Nc1ccccc1O2)c1ccccc1` [Example 15, 1-Benzoyl-3-(11-oxo-10,11-dihydro-dibenzo[b,f][1,4]oxazepin-2-yl)-thiourea], for which the pIC50 on iNOS was 3.70; at nNOS, 4.00.

For `O=C(NC(=S)Nc1ccc2c(c1)C(=O)Nc1ccccc1N2)c1ccccc1` [Example 8, 1-Benzoyl-3-(11-oxo-10,11-dihydro-5H-dibenzo[b,e][1,4]diazepin-2-yl)-thiourea], the pIC50 on iNOS was 3.52; at nNOS, 3.92.

On to `O=C1Nc2ccccc2Oc2ccc(NC(=S)Nc3ccccc3)cc21` [Example 17, 1-(11-Oxo-10,11-dihydro-dibenzo[b,f][1,4]oxazegin-2-yl)-3-phenyl-thiourea], for which the inhibition at 100 µM on iNOS is 24%; at nNOS, 7%.

For `N=C(Nc1ccc2c(c1)C(=O)Nc1ccccc1N2)c1cccs1` [Example 19, N-(11-Oxo-10,11-dihydro-5H-dibenzo[b,e][1,4]diazepin-2-yl)-thiophene-2-carboxamidine hydrobromide], the inhibition at 100 µM on iNOS was determined as 17%; on nNOS, 42%.

Consider `N=C(Nc1ccc2c(c1)C(=O)Nc1ccccc1N2)SCc1ccc2ccccc2c1` [Example 12, 2-Naphthalen-2-ylmethyl-1-(11-oxo-10,11-dihydro-5H-dibenzo[b,e][1,4]diazepin-2-yl)-isothiourea], for which the inhibition at 100 µM at iNOS was 28%; at nNOS it was 21%.

Take `NC(=S)Nc1ccc2c(c1)C(=O)Nc1ccccc1O2` [Example 16, (11-Oxo-10,11-dihydro-dibenzo[b,f][1,4]oxazepin-2-yl)-thiourea]: the pIC50 at iNOS was 3.82; at nNOS, 3.70.

Take `CC(=N)Nc1ccc2c(c1)C(=O)Nc1ccccc1O2` [Example 14, N-(11-Oxo-10,11-dihydro-dibenzo[b,f][1,4]oxazepin-2-yl)-acetamidine]: the pIC50 is 3.52 at iNOS and 3.70 on nNOS.

Consider `N=C(Nc1ccc2c(c1)C(=O)Nc1ccccc1O2)c1cccs1` [Example 18, N-(11-Oxo-10,11-dihydro-dibenzo[b,f][1,4]oxazepin-2-yl)-thiophene-2-carboxamidine hyrobromide], for which the inhibition at 100 µM on iNOS turned out to be 14%; at nNOS, 25%.

For `CCSC(=N)Nc1ccc2c(c1)C(=O)Nc1ccccc1N2` [Example 10, 2-Ethyl-1-(11-oxo-10,11-dihydro-5H-dibenzo[b,e][1,4]diazepin-2-yl)-isothiourea], the results for the pIC50 at iNOS and at nNOS were 4.00 and 4.70, respectively.
